Consider 15 molecules from ChEMBL document CHEMBL3351987, “Synthesis and biological evaluation of isoprenylated coumarins as potential anti-pancreatic cancer agents” (2014).

The structures appear in SMILES notation.

A short description of test [1]: Cytotoxicity against human PANC1 cells under nutrient-deprived condition after 24 hrs by WST8 dye based assay. The class given is functional. The note with it: PANC-1, 24 h, read-out: LC50 (the source's name). (In general: Tetrazolium assays rely on reduction of a dye to a coloured formazan, in cell work by metabolically active cells.)
The nature of test [2]: Cytotoxicity against human PANC1 cells under nutrient-rich condition after 24 hrs by WST8 dye based assay. The class given is functional. The note with it: PANC-1, 24 h, read-out: LC50 (the source's name).
Test [3] relates to PANC-1. In words: Stimulation of cell growth in human PANC1 cells at 6.25 to 50 uM under nutrient-deprived condition after 24 hrs by WST8 dye based assay. The class given is functional.
Test [4] deals with PANC-1. The experiment in a line: Induction of apoptosis in human PANC1 cells under nutrient-deprived condition after 24 hrs. In kind it is functional, cell-based.

As to `O=c1ccc2ccc(O)cc2o1` [UMBELLIFERONE], the CC50 in test [1] and in test [2] was > 100 µM each time.

On to `CC(C)=CCC/C(C)=C/CC/C(C)=C/CO` [FARNESOL], for which the Activity in test [3] is 40%. Further, the CC50 in test [2] was > 100 µM.

For the molecule `CC(C)=CCOc1ccc2oc(=O)ccc2c1`, the CC50 in test [1] and in test [2] was > 100 µM each time.

In the case of `O=c1ccc2cc(O)ccc2o1` [6-HYDROXYCOUMARIN], the CC50 in test [1] and in test [2] was > 100 µM each time.

In the case of `CC(C)=CCC/C(C)=C/CC/C(C)=C/COc1ccc2ccc(=O)oc2c1` [UMBELLIPRENIN], the CC50 in test [1] is 18 µM; in test [2], > 100 µM.

Regarding `O=c1oc2ccccc2cc1O` [3-HYDROXYCOUMARIN], the CC50 in test [1] and in test [2] was > 100 µM each time.

`CC(C)=CCC/C(C)=C/COc1ccc2oc(=O)ccc2c1`: the CC50 in test [1] was 12 µM; in test [2], > 100 µM.

`CC(C)=CCC/C(C)=C/CO` [GERANIOL] displayed an Activity in test [3] of 20%. Moreover, the CC50 in test [2] was > 100 µM.

Take `CC(C)=CCC/C(C)=C/CC/C(C)=C/COc1ccc2oc(=O)ccc2c1`: the values for the CC50 in test [1] and in test [2] were 4 µM and > 100 µM, respectively. The Activity entry in test [4] is “Dose-dependent effect”.

Regarding `CC(C)=CCOc1cc2ccccc2oc1=O`, the CC50 in test [1] and in test [2] was > 100 µM throughout.

Take `CC(C)=CCC/C(C)=C/COc1ccc2ccc(=O)oc2c1` [AURAPTENE]: the CC50 is 21 µM in test [1] and > 100 µM in test [2].

For `CC(C)=CCC/C(C)=C/COc1cc2ccccc2oc1=O`, the CC50 in test [1] was 37 µM; in test [2], > 100 µM.

As for `CC(C)=CCC/C(C)=C/CC/C(C)=C/COc1cc2ccccc2oc1=O`, the values for the CC50 in test [1] and in test [2] were 12 µM and > 100 µM, respectively.

In the case of `CC(C)=CCO`, the CC50 in test [1] and in test [2] was > 100 µM throughout.

For `CC(C)=CCOc1ccc2ccc(=O)oc2c1` [7-PRENYLOXYCOUMARIN], the CC50 in test [1] is 83 µM; in test [2], > 100 µM.
